Measured values: the supplement of paper PMC12076712

Key:
Assay in all cases: pIC50, kinobeads binding competition
UniProt Q8NI60 = molecular target: UniProt Q8NI60
How it was run: (§1)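 To obtain pIC50, fold changes versus vehicle were fitted to logistic dose-response curves (R drc package) across biological duplicates. Protein binding to Kinobeads was quantified by TMT10 LC-MS/MS of digested bead-bound proteins. Treatments used nine concentrations with a top of 30 μM, applied to live Jurkat cells in 1:4 steps for 60 min at 37 °C before lysis, or to Jurkat lysate or a 1:1:1:1 HEK293/K-562/HepG2/placenta lysate mix in 1:5 steps for 60 min at 4 °C.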

BRSK2 = molecular target: T1, BRSK2 (UniProt Q8IWQ3)
T1 sequence (whole entry): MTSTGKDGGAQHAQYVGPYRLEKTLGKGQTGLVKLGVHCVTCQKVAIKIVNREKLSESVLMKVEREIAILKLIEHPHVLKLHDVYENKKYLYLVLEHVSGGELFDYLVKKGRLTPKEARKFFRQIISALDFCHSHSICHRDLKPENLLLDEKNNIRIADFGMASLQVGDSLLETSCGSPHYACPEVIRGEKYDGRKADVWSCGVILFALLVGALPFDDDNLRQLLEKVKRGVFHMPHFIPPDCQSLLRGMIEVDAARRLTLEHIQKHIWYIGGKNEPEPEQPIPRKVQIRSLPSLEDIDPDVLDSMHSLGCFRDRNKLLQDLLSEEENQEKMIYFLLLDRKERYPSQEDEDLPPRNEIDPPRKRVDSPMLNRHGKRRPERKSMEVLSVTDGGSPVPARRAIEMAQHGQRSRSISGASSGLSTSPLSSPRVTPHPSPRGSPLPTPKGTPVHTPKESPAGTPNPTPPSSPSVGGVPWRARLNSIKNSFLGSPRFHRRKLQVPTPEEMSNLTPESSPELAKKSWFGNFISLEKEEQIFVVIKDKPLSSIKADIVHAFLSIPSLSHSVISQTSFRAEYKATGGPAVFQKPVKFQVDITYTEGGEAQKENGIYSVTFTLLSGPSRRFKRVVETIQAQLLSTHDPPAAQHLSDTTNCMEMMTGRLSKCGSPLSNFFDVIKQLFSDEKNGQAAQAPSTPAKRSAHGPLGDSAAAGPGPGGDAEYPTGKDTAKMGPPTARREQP
How it was run: as §1

UniProt O75716 = molecular target: UniProt O75716
How it was run: as §1

UniProt Q96GD4 = molecular target: UniProt Q96GD4
How it was run: as §1

EPHB3 = molecular target: T2, EPHB3 (UniProt P54753); conditions: cell material: Lysate mix
T2 sequence (whole entry): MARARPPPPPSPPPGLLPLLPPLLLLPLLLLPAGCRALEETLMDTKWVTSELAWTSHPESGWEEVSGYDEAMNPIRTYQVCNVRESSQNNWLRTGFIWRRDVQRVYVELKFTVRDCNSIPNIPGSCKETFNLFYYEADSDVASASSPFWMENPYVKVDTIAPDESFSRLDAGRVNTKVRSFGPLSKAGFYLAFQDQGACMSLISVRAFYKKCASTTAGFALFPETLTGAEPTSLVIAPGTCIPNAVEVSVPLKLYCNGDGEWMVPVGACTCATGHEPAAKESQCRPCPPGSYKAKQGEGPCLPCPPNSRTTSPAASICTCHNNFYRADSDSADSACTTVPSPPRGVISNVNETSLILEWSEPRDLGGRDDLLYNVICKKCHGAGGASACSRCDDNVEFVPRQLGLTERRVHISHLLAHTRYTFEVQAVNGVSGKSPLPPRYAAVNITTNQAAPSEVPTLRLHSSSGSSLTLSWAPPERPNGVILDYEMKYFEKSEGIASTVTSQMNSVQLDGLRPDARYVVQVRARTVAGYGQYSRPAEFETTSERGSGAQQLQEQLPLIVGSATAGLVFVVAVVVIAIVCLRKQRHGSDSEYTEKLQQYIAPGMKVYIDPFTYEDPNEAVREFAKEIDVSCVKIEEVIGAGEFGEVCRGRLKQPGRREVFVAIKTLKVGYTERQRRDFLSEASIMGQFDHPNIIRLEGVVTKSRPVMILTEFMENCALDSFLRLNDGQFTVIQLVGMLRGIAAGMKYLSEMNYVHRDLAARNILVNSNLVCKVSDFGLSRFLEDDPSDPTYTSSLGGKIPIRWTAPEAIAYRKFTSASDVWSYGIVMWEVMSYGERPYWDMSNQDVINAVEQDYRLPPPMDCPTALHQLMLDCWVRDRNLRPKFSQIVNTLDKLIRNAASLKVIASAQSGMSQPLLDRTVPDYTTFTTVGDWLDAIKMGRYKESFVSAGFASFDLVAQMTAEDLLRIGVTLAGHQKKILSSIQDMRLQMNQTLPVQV
How it was run: as §1

FGFR4 = FGFR4 (UniProt P22455); conditions: cell material: Lysate mix
How it was run: as §1

UniProt O15111 = molecular target: T3, UniProt O15111
T3 sequence (whole entry): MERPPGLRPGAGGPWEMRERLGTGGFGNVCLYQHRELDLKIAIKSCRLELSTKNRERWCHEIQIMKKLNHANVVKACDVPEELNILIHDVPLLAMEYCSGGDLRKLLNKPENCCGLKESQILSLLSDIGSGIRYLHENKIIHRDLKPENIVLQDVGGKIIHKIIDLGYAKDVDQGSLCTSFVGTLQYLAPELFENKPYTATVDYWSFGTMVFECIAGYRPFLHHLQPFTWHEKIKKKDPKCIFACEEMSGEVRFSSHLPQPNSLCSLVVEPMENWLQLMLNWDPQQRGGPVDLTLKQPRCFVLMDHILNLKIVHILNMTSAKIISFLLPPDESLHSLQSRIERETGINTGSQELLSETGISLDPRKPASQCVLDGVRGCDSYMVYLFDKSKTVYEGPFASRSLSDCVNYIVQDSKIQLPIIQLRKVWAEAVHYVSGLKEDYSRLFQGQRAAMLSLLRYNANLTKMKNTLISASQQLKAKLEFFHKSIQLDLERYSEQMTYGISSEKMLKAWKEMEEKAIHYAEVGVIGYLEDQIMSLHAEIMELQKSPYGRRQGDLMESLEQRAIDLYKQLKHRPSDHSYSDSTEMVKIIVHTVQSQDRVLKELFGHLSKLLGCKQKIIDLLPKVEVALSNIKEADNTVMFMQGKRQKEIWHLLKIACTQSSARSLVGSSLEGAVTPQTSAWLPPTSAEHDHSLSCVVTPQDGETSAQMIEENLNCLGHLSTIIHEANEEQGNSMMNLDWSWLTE
How it was run: as §1

MAST4 = MAST4 (UniProt O15021)
How it was run: as §1

BUB1 = BUB1 (UniProt O43683)
How it was run: as §1

UniProt Q8NI60, sequence (Q8NI60 whole entry, looked up): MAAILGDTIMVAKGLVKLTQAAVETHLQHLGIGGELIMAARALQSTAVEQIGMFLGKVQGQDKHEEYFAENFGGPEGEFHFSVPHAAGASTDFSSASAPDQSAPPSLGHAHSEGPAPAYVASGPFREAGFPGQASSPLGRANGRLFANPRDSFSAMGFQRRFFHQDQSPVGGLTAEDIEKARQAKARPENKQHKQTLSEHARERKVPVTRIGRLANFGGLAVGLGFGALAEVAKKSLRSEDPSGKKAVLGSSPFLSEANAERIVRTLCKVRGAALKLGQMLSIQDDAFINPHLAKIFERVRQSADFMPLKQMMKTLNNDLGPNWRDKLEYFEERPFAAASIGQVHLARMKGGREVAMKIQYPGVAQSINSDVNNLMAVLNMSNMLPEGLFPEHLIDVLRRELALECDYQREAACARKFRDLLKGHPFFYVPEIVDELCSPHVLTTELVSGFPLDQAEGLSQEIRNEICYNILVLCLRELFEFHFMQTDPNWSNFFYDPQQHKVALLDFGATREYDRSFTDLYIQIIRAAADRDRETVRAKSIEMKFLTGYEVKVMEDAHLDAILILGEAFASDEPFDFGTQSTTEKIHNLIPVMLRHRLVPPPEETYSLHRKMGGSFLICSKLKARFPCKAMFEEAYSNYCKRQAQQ
UniProt Q96GD4, sequence (Q96GD4 whole entry): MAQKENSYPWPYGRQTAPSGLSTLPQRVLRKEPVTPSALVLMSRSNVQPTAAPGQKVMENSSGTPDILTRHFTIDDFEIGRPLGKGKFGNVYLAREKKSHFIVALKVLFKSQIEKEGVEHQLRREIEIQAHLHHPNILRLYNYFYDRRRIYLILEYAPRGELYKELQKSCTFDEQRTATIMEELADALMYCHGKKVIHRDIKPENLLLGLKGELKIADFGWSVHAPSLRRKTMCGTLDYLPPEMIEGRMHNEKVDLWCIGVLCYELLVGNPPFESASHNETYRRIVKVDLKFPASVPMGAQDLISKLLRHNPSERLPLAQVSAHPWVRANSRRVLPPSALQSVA
FGFR4, sequence (P22455 whole entry, looked up): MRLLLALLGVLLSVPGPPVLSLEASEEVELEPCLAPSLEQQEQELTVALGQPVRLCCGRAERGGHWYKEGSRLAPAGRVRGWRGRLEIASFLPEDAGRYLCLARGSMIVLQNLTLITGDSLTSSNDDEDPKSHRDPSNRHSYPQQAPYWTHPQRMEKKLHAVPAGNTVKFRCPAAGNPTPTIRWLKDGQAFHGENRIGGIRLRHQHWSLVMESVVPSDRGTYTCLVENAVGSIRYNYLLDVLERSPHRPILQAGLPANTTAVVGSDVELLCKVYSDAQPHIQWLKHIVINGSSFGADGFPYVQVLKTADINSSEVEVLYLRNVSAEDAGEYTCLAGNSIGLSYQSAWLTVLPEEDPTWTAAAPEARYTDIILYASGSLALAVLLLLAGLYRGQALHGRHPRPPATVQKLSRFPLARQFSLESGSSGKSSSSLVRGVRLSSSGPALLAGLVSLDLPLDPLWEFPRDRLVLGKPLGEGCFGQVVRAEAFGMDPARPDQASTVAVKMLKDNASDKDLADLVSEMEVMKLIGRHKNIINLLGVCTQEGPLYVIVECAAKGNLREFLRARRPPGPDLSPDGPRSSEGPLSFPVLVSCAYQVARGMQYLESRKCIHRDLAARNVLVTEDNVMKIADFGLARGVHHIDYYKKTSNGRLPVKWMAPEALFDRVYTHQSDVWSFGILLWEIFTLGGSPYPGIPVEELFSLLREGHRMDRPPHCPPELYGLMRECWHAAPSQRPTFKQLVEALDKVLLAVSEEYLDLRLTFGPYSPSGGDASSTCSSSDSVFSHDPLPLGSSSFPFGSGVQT
BUB1, sequence (O43683 whole entry, looked up): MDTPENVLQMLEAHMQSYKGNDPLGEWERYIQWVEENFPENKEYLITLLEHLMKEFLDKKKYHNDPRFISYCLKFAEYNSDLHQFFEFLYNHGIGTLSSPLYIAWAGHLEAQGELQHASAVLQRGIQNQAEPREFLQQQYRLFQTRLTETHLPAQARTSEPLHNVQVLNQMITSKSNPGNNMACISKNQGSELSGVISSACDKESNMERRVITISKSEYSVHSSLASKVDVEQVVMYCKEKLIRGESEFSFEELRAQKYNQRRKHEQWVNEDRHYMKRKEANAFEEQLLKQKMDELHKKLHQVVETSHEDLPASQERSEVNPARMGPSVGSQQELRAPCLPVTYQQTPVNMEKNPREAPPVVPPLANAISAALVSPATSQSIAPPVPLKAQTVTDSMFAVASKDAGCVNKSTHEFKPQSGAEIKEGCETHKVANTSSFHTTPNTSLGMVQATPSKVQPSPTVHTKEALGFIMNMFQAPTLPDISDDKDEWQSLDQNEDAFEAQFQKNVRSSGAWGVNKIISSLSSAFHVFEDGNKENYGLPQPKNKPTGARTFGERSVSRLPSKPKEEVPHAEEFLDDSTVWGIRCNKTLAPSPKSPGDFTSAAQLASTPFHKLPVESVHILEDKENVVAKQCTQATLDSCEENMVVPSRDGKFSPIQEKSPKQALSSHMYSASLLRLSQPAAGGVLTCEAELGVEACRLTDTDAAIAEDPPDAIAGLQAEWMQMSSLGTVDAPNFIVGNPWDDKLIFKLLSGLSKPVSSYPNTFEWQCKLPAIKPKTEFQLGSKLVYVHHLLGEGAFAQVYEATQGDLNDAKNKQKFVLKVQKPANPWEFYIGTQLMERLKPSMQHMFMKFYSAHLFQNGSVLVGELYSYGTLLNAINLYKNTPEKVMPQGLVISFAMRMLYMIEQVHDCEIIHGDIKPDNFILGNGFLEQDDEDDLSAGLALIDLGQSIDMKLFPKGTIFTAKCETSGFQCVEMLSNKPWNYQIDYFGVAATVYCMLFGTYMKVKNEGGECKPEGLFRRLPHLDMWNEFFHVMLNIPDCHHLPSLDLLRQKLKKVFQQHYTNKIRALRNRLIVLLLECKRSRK
UniProt O75716, sequence (O75716 whole entry): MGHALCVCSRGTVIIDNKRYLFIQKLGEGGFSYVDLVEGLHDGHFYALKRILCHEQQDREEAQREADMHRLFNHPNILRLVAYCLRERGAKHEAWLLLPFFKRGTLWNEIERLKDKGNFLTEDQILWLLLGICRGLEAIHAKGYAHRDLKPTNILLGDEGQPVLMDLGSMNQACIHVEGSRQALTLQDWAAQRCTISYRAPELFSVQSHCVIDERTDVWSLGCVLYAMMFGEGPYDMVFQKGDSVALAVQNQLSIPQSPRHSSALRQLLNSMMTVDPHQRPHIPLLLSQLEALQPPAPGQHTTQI

SMILES | pIC50 (UniProt Q8NI60; cell material: Lysate mix) | pIC50 (BRSK2; cell material: Lysate mix) | pIC50 (UniProt O75716; cell material: Lysate mix) | pIC50 (UniProt Q96GD4; cell material: Lysate mix) | pIC50 (EPHB3) | pIC50 (FGFR4) | pIC50 (UniProt O15111; cell material: Lysate mix) | pIC50 (MAST4; cell material: Jurkat cells) | pIC50 (MAST4; cell material: Lysate mix) | pIC50 (BUB1; cell material: Lysate mix) | pIC50 (UniProt Q8NI60; cell material: Jurkat cells) | pIC50 (UniProt Q8NI60; cell material: Jurkat lysate) | pIC50 (BRSK2; cell material: Jurkat cells) | pIC50 (BRSK2; cell material: Jurkat lysate) | pIC50 (UniProt O75716; cell material: Jurkat cells) | pIC50 (UniProt O75716; cell material: Jurkat lysate) | pIC50 (UniProt Q96GD4; cell material: Jurkat cells) | pIC50 (UniProt O15111; cell material: Jurkat cells) | pIC50 (UniProt O15111; cell material: Jurkat lysate) | pIC50 (MAST4; cell material: Jurkat lysate) | pIC50 (BUB1; cell material: Jurkat cells) | pIC50 (BUB1; cell material: Jurkat lysate) | pIC50 (UniProt Q96GD4; cell material: Jurkat lysate)
O=C(NCCNC(=O)c1cc(Nc2cc(C3CC3)[nH]n2)nc(N2CCN(Cc3ccc(S(=O)(=O)F)cc3)CC2)n1)OC1CC/C=C/CCC1 (stereo not given) | < 4.52 | < 4.52 | < 4.52 | 4.98 | < 4.52 | < 4.52 | < 4.52 | 6.3 | 5.3 | < 4.52 | < 4.52 | < 4.52 | 5.93 | < 4.52 | 4.81 | < 4.52 | 6.39 | < 4.52 | < 4.52 | 5.17 | < 4.52 | < 4.52 | 
CCNC(=O)c1cc(Nc2cc(C)[nH]n2)nc(N2CCN(Cc3ccc(S(=O)(=O)F)cc3)CC2)n1 | < 4.52 | < 4.52 | 4.87 | 6.13 | < 4.52 | < 4.52 | < 4.52 |  | 6.4 | < 4.52 |  |  |  |  |  |  |  |  |  |  |  |  | 
C#CCNC(=O)c1cc(Nc2cc(C3CC3)[nH]n2)nc(N2CCN(Cc3ccc(S(=O)(=O)F)cc3)CC2)n1 | < 4.52 | 4.84 | 5.32 | 6.22 | < 4.52 | < 4.52 | < 4.52 |  | 7 | < 4.52 | < 4.52 | < 4.52 | 6.54 | < 4.52 | 5.82 | 4.92 | 6.67 | < 4.52 | < 4.52 | 6.46 | 5 | < 4.52 | 5.72

Continued, in another order:

pIC50 (UniProt Q8NI60; cell material: Lysate mix) | pIC50 (BRSK2; cell material: Lysate mix) | pIC50 (UniProt O75716; cell material: Lysate mix) | pIC50 (UniProt Q96GD4; cell material: Lysate mix) | pIC50 (EPHB3) | pIC50 (FGFR4) | pIC50 (UniProt O15111; cell material: Lysate mix) | pIC50 (MAST4; cell material: Jurkat cells) | pIC50 (MAST4; cell material: Lysate mix) | pIC50 (BUB1; cell material: Lysate mix) | SMILES | pIC50 (UniProt Q8NI60; cell material: Jurkat cells) | pIC50 (UniProt Q8NI60; cell material: Jurkat lysate) | pIC50 (BRSK2; cell material: Jurkat cells) | pIC50 (BRSK2; cell material: Jurkat lysate) | pIC50 (UniProt O75716; cell material: Jurkat cells) | pIC50 (UniProt O75716; cell material: Jurkat lysate) | pIC50 (UniProt Q96GD4; cell material: Jurkat cells) | pIC50 (UniProt O15111; cell material: Jurkat cells) | pIC50 (UniProt O15111; cell material: Jurkat lysate) | pIC50 (MAST4; cell material: Jurkat lysate) | pIC50 (BUB1; cell material: Jurkat cells) | pIC50 (BUB1; cell material: Jurkat lysate) | pIC50 (UniProt Q96GD4; cell material: Jurkat lysate)
< 4.52 | < 4.52 | < 4.52 | 4.92 | < 4.52 | < 4.52 | < 4.52 |  | 4.74 | < 4.52 | Cc1cc(Nc2cc(C(=O)NCCNC(=O)OC3CC/C=C/CCC3)nc(N3CCN(Cc4ccc(S(=O)(=O)F)cc4)CC3)n2)n[nH]1 (stereo not given) |  |  |  |  |  |  |  |  |  |  |  |  | 
< 4.52 | < 4.52 | 5.46 | 5.94 | < 4.52 | < 4.52 | < 4.52 |  | 6.37 | < 4.52 | CCNC(=O)c1cc(Nc2cc(C3CC3)[nH]n2)nc(N2CCN(Cc3ccc(S(=O)(=O)F)cc3)CC2)n1 |  |  |  |  |  |  |  |  |  |  |  |  | 
< 4.52 | < 4.52 | 4.89 | 5.94 | < 4.52 | < 4.52 | < 4.52 |  | 6.06 | < 4.52 | C#CCNC(=O)c1cc(Nc2cc(C)[nH]n2)nc(N2CCN(Cc3ccc(S(=O)(=O)F)cc3)CC2)n1 |  |  |  |  |  |  |  |  |  |  |  |  | 
